# Laboratory results reported in patent publication US12629355B2, “Drug inhibitor against migration and invasion of cancer cells and methods of treating against metastasis of cancer cells” (HOWARD UNIVERSITY, priority 2019, dated 2026).
# Target: T1, RACK1A Y248 phosphorylation (Arabidopsis thaliana, UniProt O24456)
# T1 construct: from tissue; host or cells: one-week old Arabidopsis seedlings (whole-seedling lysate)
# Test: Stress hormone (ABA) induced RACK1A Y248 phosphorylation in Arabidopsis seedlings, western blot (FIG. 1)
# Type: cell-based
# Settings: 10 uM ABA, 12 hours
# Description: The results of lab experiment establish the compounds identified by in silico screen to prevent RACK1 Y248 phosphorylation can inhibit RACK1 Y248 phosphorylation and confirm their utility in their application in RACK1 mediated cellular pathways. Y248 phosphorylation has previously been identified as a key event needed for RACK1 mediated scaffolding activities by regulating protein-protein interactions in plants. The corresponding residue in human RAKI is also a key requirement for scaffolding activities needed at the receptor level during the invasion and migration of cancer cells. […] The knock-out plant did maintain both the RACK1B protein and the RACK1C protein, but the antibody was raised to detect the RACK1A Y248 phosphorylation only.
# As to FIG. 1, since RACK1 is a regulator of plant stress hormone Abscisic acid (ABA) (Guo et al., 2009), one-week old Arabidopsis seedlings were treated with 10 uM of ABA in the presence/absence of the inhibitor compounds for 12 hours in a growth chamber (overnight) at 22 C mostly in the night dark. Lysates isolated in buffer (Cell Signaling, MA) supplemented with plant protease inhibitor (Sigma-Aldrich), Protein Tyrosine phosphatase inhibitors (Santa Cruz Biotechnology, TX), and N-Ethylamaleimide (Sigma-Aldrich) at 25 mM to inhibit de-sumoylation. […]
# T1 sequence (O24456 whole entry): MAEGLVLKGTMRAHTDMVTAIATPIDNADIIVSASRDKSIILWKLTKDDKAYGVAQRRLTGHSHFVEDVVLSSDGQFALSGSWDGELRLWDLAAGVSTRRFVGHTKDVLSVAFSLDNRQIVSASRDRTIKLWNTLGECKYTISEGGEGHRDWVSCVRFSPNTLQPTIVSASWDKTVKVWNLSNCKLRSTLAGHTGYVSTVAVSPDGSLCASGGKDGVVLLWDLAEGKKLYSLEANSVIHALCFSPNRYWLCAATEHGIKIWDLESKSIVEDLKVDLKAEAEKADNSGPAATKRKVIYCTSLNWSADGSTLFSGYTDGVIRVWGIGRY
structure (smiles),measurement,value
"Nn1c(S)nnc1-c1ccc(F)cc1 [SD 29, reference compound]",RACK1A Y248 phosphorylation with stress hormone present,prevents Y248 phosphorylation
